From patent US20240390369A1, “METHODS FOR DETERMINING RESPONSIVENESS TO TYK2 INHIBITORS” (Bristol-Myers Squibb Company, priority 2021, published 2024) come the findings set out here.

One assay has as its system β-defensin 2 (BD2). Briefly: Serum β-defensin 2 level over sixteen weeks of treatment (ELISA). The assay is classed as in vivo, human. The following applies: 12 mg QD treatment arm; sixteen-week treatment period (FIG. 43B). As for the experimental part: Levels of proteins in serum were measured at baseline and at various points during sixteen weeks of treatment with deucravacitinib. […] Levels of BD2 in serum samples were measured by ELISA; levels of IL-19 and IL-17A in serum were each measured by ultrasensitive Simoa technology.

The test system of assay [1] is patients with psoriatic arthritis. Briefly: Phase 2 trial in psoriatic arthritis: ACR20 response at week 16. The assay is classed as in vivo, human.

Take `[2H]C([2H])([2H])NC(=O)c1nnc(NC(=O)C2CC2)cc1Nc1cccc(-c2ncn(C)n2)c1OC` [deucravacitinib, 6-(cyclopropanecarboxamido)-4-((2-methoxy-3-(1-methyl-1H-1,2,4-triazol-3-yl)phenyl)amino)-N-(methyl-d3)pyridazine-3-carboxamide]: the “Change from baseline in serum BD2 level, PASI75 responders versus non-responders” value in the assay on β-defensin 2 (BD2) is listed as “greater reductions in BD2 serum level were observed over time in the PASI75 responder group compared with the non-responder group”. The “Interaction Term for ACR20 response (ratio of odds ratios)” value in assay [1] (adjusted for baseline DAS28, 12 mg QD vs placebo: IL-19-high versus IL-19-low) was 7.37. In addition, the “Odds Ratio for ACR20 response” value in assay [1] (adjusted for baseline DAS28, All patients, 6 mg QD vs placebo) came to 2.44; in assay [1] (adjusted for baseline DAS28, BD2-high, 12 mg QD vs placebo), 7.33; in assay [1] (adjusted for baseline DAS28, IL-17A-low, 12 mg QD vs placebo), 2.16.
